From ChEMBL document CHEMBL4007388, “Synthesis and antiproliferative activity of monocationic arylthiophene derivatives” (Eur J Med Chem, 2017)

Experiments:
[1] = tested on: WISH; assay: Cytotoxicity against human WISH cells assessed as reduction in cell viability after 24 hrs by MTT assay; assay type: cell-based
[2] = tested on: WI-38; assay: Cytotoxicity against human WI38 cells assessed as reduction in cell viability after 24 hrs by MTT assay; assay type: cell-based; details: WI-38, 24 h
[3] = Antioxidant activity assessed as superoxide dismutase-like activity by measuring inhibition of superoxide radical anion production at 2 uM by NBT reduction assay relative to control; assay type: functional
[4] = Growth inhibition of human NCI60 cells at 10 uM after 48 hrs by SRB assay relative to control; values are per cent of control; details: NCI60, 48 h
[5] = tested on: SW-620; assay: Growth inhibition of human SW620 cells incubated for 48 hrs by sulforhodamine B assay; assay type: functional; details: SW-620, 48 h
[6] = tested on: SNB-75; assay: Growth inhibition of human SNB75 cells incubated for 48 hrs by sulforhodamine B assay; assay type: functional; details: SNB-75, 48 h
[7] = tested on: NCI-H460; assay: Growth inhibition of human NCI-H460 cells incubated for 48 hrs by sulforhodamine B assay; assay type: functional; details: NCI-H460, 48 h
[8] = tested on: U-251; assay: Growth inhibition of human U251 cells incubated for 48 hrs by sulforhodamine B assay; assay type: functional; details: U-251, 48 h
[9] = tested on: UO-31; assay: Growth inhibition of human UO31 cells incubated for 48 hrs by sulforhodamine B assay; assay type: functional; details: UO-31, 48 h
[10] = tested on: SNB-19; assay: Growth inhibition of human SNB19 cells incubated for 48 hrs by sulforhodamine B assay; assay type: functional; details: SNB-19, 48 h
[11] = tested on: NCI-H226; assay: Growth inhibition of human NCI-H226 cells incubated for 48 hrs by sulforhodamine B assay; assay type: functional; details: NCI-H226, 48 h
[12] = tested on: PC-3; assay: Growth inhibition of human PC3 cells incubated for 48 hrs by sulforhodamine B assay; assay type: functional; details: PC-3, 48 h
[13] = tested on: NCI-H322M; assay: Growth inhibition of human NCI-H322M cells incubated for 48 hrs by sulforhodamine B assay; assay type: functional
[14] = tested on: UACC-257; assay: Growth inhibition of human UACC257 cells incubated for 48 hrs by sulforhodamine B assay; assay type: functional; details: UACC-257, 48 h
[15] = tested on: ACHN; assay: Growth inhibition of human ACHN cells incubated for 48 hrs by sulforhodamine B assay; assay type: functional
[16] = tested on: RXF 393; assay: Growth inhibition of human RXF393 cells incubated for 48 hrs by sulforhodamine B assay; assay type: functional; details: RXF 393, 48 h
[17] = tested on: OVCAR-8; assay: Growth inhibition of human OVCAR8 cells incubated for 48 hrs by sulforhodamine B assay; assay type: functional; details: OVCAR-8, 48 h
[18] = tested on: HCT-116; assay: Growth inhibition of human HCT116 cells incubated for 48 hrs by sulforhodamine B assay; assay type: functional; details: HCT-116, 48 h
[19] = tested on: UACC-62; assay: Growth inhibition of human UACC62 cells incubated for 48 hrs by sulforhodamine B assay; assay type: functional; details: UACC-62, 48 h
[20] = tested on: OVCAR-4; assay: Growth inhibition of human OVCAR4 cells incubated for 48 hrs by sulforhodamine B assay; assay type: functional; details: OVCAR-4, 48 h
[21] = tested on: TK-10; assay: Growth inhibition of human TK10 cells incubated for 48 hrs by sulforhodamine B assay; assay type: functional; details: TK-10, 48 h
[22] = tested on: SK-MEL-5; assay: Growth inhibition of human SK-MEL-5 cells incubated for 48 hrs by sulforhodamine B assay; assay type: functional; details: SK-MEL-5, 48 h
[23] = tested on: OVCAR-3; assay: Growth inhibition of human OVCAR3 cells incubated for 48 hrs by sulforhodamine B assay; assay type: functional; details: OVCAR-3, 48 h
[24] = tested on: RPMI-8226; assay: Growth inhibition of human RPMI8226 cells incubated for 48 hrs by sulforhodamine B assay; assay type: functional; details: RPMI-8226, 48 h
[25] = tested on: SK-MEL-2; assay: Growth inhibition of human SK-MEL-2 cells incubated for 48 hrs by sulforhodamine B assay; assay type: functional; details: SK-MEL-2, 48 h
[26] = tested on: MDA-MB-231; assay: Growth inhibition of human MDA-MB-231 cells incubated for 48 hrs by sulforhodamine B assay; assay type: functional; details: MDA-MB-231, 48 h
[27] = tested on: SK-MEL-28; assay: Growth inhibition of human SK-MEL-28 cells incubated for 48 hrs by sulforhodamine B assay; assay type: functional; details: SK-MEL-28, 48 h
[28] = tested on: OVCAR-5; assay: Growth inhibition of human OVCAR5 cells incubated for 48 hrs by sulforhodamine B assay; assay type: functional; details: OVCAR-5, 48 h
[29] = tested on: NCI/ADR-RES; assay: Growth inhibition of human NCI/ADR-RES cells incubated for 48 hrs by sulforhodamine B assay; assay type: functional
[30] = tested on: MDA-MB-468; assay: Growth inhibition of human MDA-MB-468 cells incubated for 48 hrs by sulforhodamine B assay; assay type: functional; details: MDA-MB-468, 48 h
[31] = tested on: T47D; assay: Growth inhibition of human T47D cells incubated for 48 hrs by sulforhodamine B assay; assay type: functional
[32] = tested on: Escherichia coli; assay: Induction of Escherichia coli genomic DNA cleavage after 1 hr by agarose gel electrophoresis method
[33] = tested on: LOX IMVI; assay: Growth inhibition of human LOXIMVI cells incubated for 48 hrs by sulforhodamine B assay; assay type: functional
[34] = tested on: KM12; assay: Growth inhibition of human KM12 cells incubated for 48 hrs by sulforhodamine B assay; assay type: functional; details: KM12, 48 h
[35] = tested on: HCC 2998; assay: Growth inhibition of human HCC2998 cells incubated for 48 hrs by sulforhodamine B assay; assay type: functional; details: HCC 2998, 48 h
[36] = tested on: A498; assay: Growth inhibition of human A498 cells incubated for 48 hrs by sulforhodamine B assay; assay type: functional; details: A498, 48 h
[37] = tested on: SK-OV-3; assay: Growth inhibition of human SKOV3 cells incubated for 48 hrs by sulforhodamine B assay; assay type: functional; details: SK-OV-3, 48 h
[38] = tested on: NCI-H23; assay: Growth inhibition of human NCI-H23 cells incubated for 48 hrs by sulforhodamine B assay; assay type: functional; details: NCI-H23, 48 h
[39] = tested on: Hs-578T; assay: Growth inhibition of human Hs 578T cells incubated for 48 hrs by sulforhodamine B assay; assay type: functional
[40] = tested on: MDA-MB-435; assay: Growth inhibition of human MDA-MB-435 cells incubated for 48 hrs by sulforhodamine B assay; assay type: functional; details: MDA-MB-435, 48 h
[41] = tested on: A549; assay: Growth inhibition of human A549/ATCC cells incubated for 48 hrs by sulforhodamine B assay; assay type: functional; details: A549, 48 h
[42] = tested on: HCT-15; assay: Growth inhibition of human HCT15 cells incubated for 48 hrs by sulforhodamine B assay; assay type: functional; details: HCT-15, 48 h
[43] = tested on: SF-295; assay: Growth inhibition of human SF295 cells incubated for 48 hrs by sulforhodamine B assay; assay type: functional; details: SF-295, 48 h
[44] = organism: Homo sapiens; assay: Inhibition of PTK in human MCF7 cells at 1 uM preincubated for 2 hrs followed by poly-Glu-Tyr substrate addition by ELISA relative to control; assay type: cell-based
[45] = tested on: M14; assay: Growth inhibition of human M14 cells incubated for 48 hrs by sulforhodamine B assay; assay type: functional; details: M14, 48 h
[46] = tested on: BT-549; assay: Growth inhibition of human BT549 cells incubated for 48 hrs by sulforhodamine B assay; assay type: functional; details: BT-549, 48 h
[47] = tested on: CAKI-1; assay: Growth inhibition of human Caki1 cells incubated for 48 hrs by sulforhodamine B assay; assay type: functional; details: CAKI-1, 48 h
[48] = tested on: Malme-3M; assay: Growth inhibition of human MALME-3M cells incubated for 48 hrs by sulforhodamine B assay; assay type: functional
[49] = tested on: SF-268; assay: Growth inhibition of human SF268 cells incubated for 48 hrs by sulforhodamine B assay; assay type: functional; details: SF-268, 48 h
[50] = tested on: HOP-92; assay: Growth inhibition of human HOP92 cells incubated for 48 hrs by sulforhodamine B assay; assay type: functional; details: HOP-92, 48 h
[51] = tested on: HT-29; assay: Growth inhibition of human HT-29 cells incubated for 48 hrs by sulforhodamine B assay; assay type: functional; details: HT-29, 48 h
[52] = tested on: 786-0; assay: Growth inhibition of human 786-O cells incubated for 48 hrs by sulforhodamine B assay; assay type: functional; details: 786-0, 48 h
[53] = tested on: SF-539; assay: Growth inhibition of human SF539 cells incubated for 48 hrs by sulforhodamine B assay; assay type: functional; details: SF-539, 48 h
[54] = tested on: CCRF-CEM; assay: Growth inhibition of human CCRF-CEM cells incubated for 48 hrs by sulforhodamine B assay; assay type: functional
[55] = tested on: NCI-H522; assay: Growth inhibition of human NCI-H522 cells incubated for 48 hrs by sulforhodamine B assay; assay type: functional; details: NCI-H522, 48 h
[56] = tested on: MCF7; assay: Growth inhibition of human MCF7 cells incubated for 48 hrs by sulforhodamine B assay; assay type: functional; details: MCF7, 48 h
[57] = tested on: DU-145; assay: Growth inhibition of human DU145 cells incubated for 48 hrs by sulforhodamine B assay; assay type: functional; details: DU-145, 48 h
[58] = tested on: SN12C; assay: Growth inhibition of human SN12C cells incubated for 48 hrs by sulforhodamine B assay; assay type: functional
[59] = tested on: COLO 205; assay: Growth inhibition of human COLO205 cells incubated for 48 hrs by sulforhodamine B assay; assay type: functional; details: COLO 205, 48 h

In the case of `O=c1[nH]cc(F)c(=O)[nH]1` [FLUOROURACIL], the IC50 [1] is reported as 7100 nM and the IC50 [2] is reported as 9300 nM.

In the case of `N#Cc1ccc(-c2ccc(-c3ccc(Cl)cc3)s2)cc1F`, the inhibition [3] is reported as 35.3%.

For `N=C(N)c1ccc(-c2ccc(-c3cccs3)s2)cc1F`, the growth percent at 10 µM [4] was -72.5%.

With `N#Cc1ccc(-c2ccc(-c3ccccc3)s2)cc1F` the inhibition [3] was 37.9%.

Compound `COc1ccc(-c2ccc(-c3ccc(C(=N)N)cc3)s2)cc1` has a GI50 [5] of 211 nM, a GI50 [6] of 1710 nM and a GI50 [7] of 204 nM. It also gave a GI50 [8] of 232 nM, a GI50 [9] of 1670 nM and a GI50 [10] of 811 nM. It also gave a GI50 [11] of 2140 nM, a GI50 [12] of 773 nM and a GI50 [13] of 1240 nM. For the same compound, the GI50 [14] was 2070 nM, the GI50 [15] was 359 nM and the GI50 [16] was 1000 nM. The GI50 [17] was 321 nM, the GI50 [18] was 186 nM and the GI50 [19] was 1410 nM. For the same compound, the GI50 [20] was 1580 nM, the GI50 [21] was 1970 nM and the GI50 [22] was 1390 nM. The GI50 [23] was 1730 nM, the GI50 [24] was 282 nM and the GI50 [25] was 2300 nM. It also gave an IC50 [1] of 180000 nM, a GI50 [26] of 267 nM and a growth percent at 10 µM [4] of -70.7%. The GI50 [27] was 1550 nM, the GI50 [28] was 180 nM and the GI50 [29] was 1490 nM. The GI50 [30] was 192 nM, the GI50 [31] was 300 nM and the Activity [32] was “Dose-dependent effect”. The GI50 [33] was 198 nM, the GI50 [34] was 339 nM and the GI50 [35] was 1330 nM. For the same compound, the GI50 [36] was 1740 nM, the GI50 [37] was 1960 nM and the IC50 [2] was 192000 nM. For the same compound, the GI50 [38] was 665 nM, the GI50 [39] was 2140 nM and the GI50 [40] was 924 nM. It also gave a GI50 [41] of 226 nM, a GI50 [42] of 183 nM and a GI50 [43] of 1270 nM. It also gave an inhibition [44] of 19 to 36%, a GI50 [45] of 1410 nM and a GI50 [46] of 1650 nM. For the same compound, the GI50 [47] was 1500 nM, the GI50 [48] was 2170 nM and the GI50 [49] was 1740 nM. The GI50 [50] was 750 nM, the GI50 [51] was 196 nM and the GI50 [52] was 184 nM. The GI50 [53] was 160 nM, the GI50 [54] was 231 nM and the inhibition [3] was 59.2%. The GI50 [55] was 251 nM, the GI50 [56] was 175 nM and the GI50 [57] was 201 nM. For the same compound, the GI50 [58] was 189 nM and the GI50 [59] was 224 nM.
